In US9289411B2, “Anti-HCV agent” (NATIONAL UNIVERSITY CORPORATION OKAYAMA UNIVERSITY, priority 2011, dated 2016) one finds CC50 data, which are given here for one molecule.

For orientation: CC50 means the concentration that lowers cell viability or growth by half.

One data set has as its system OR6 cells. As to the kind of experiment: Cytotoxic effect, WST-1 cell proliferation assay in OR6 cells. The settings on record: OR6 cells, 72 hours, WST-1. The text has this:
Assay systems using OR6 cells (HCV-O strain), 1B-4R cells (HCV-1B-4 strain), and AH1R cells (HCV-AH1R strain) as HuH-7 cell-derived full-length HCV-RNA-replicating cells, and ORL8 cells (HCV-O strain), ORL11 cells (HCV-O strain), 1B-4RL cells (HCV-1B-4 strain), and KAH5RL cells (HCV-KAH5 strain) as Li23 cell-derived full-length HCV-RNA-replicating cells were used for the quantitative analysis of anti-HCV activity and evaluation of a cytotoxic effect in the present invention. The three cell lines, i.e., the 1B-4R cells, the 1B-4RL cells, and the KAH5RL cells have been disclosed in WO 2010/026965 A1. The AH1R cells may be produced with reference to Mori K et al., BBRC, 371:104-109, 2008 and WO 2010/026965 A1. In addition, all the HCV strains belong to genotype 1b.
In the measurement of the renilla luciferase activity and the measurement by the WST-1 method, experiments were performed in three wells independent of each other, and their means and standard deviation were calculated.
After 24 hours, N-89 was added so as to achieve concentrations of 20 μM, a 2-fold dilution series from 20 μM (10, 5, 2.5, 1.3, 0.63, and 0.31 μM), and 0, or N-251 was added so as to achieve concentrations of 10 μM, a 2-fold dilution series from 10 μM (5, 2.5, 1.3, 0.63, 0.31, and 0.16 μM), and 0.
The cytotoxic effect of artemisinin was examined using OR6 and ORL8 cells and the CC50 values were calculated. […]
(In general: Formazan colour is commonly taken as a measure of viable cells.)

For the next data set, the system named is 1B-4RL cells. Briefly: Cytotoxic effect, WST-1 cell proliferation assay in 1B-4RL cells. Format: cell-based, human. As to conditions: 72 hours.

From the text for 1B-4RL cells: Assay systems using OR6 cells (HCV-O strain), 1B-4R cells (HCV-1B-4 strain), and AH1R cells (HCV-AH1R strain) as HuH-7 cell-derived full-length HCV-RNA-replicating cells, and ORL8 cells (HCV-O strain), ORL11 cells (HCV-O strain), 1B-4RL cells (HCV-1B-4 strain), and KAH5RL cells (HCV-KAH5 strain) as Li23 cell-derived full-length HCV-RNA-replicating cells were used for the quantitative analysis of anti-HCV activity and evaluation of a cytotoxic effect in the present invention. […] In addition, all the HCV strains belong to genotype 1b.
N-89 was added at the concentrations used for the measurement of the luciferase activity, and N-251 was added so as to achieve concentrations of 2 μM, a 2-fold dilution series from 2 μM (1, 0.5, 0.25, 0.13, 0.06, and 0.03 μM), and 0. The WST-1 cell proliferation assay was performed 72 hours after the addition.

As for `OCCCCCCC1COOC2(CCCCCCCCCCC2)OOC1` [N-251, 6-(1,2,6,7-tetraoxaspiro[7,11]nonadec-4-yl)], the figures for the 50% cytotoxic concentration (CC50) with OR6 cells and in the data set with 1B-4RL cells were 3000 nM and 1900 nM, respectively.
